Data from ChEMBL document CHEMBL1147548, “Didehydrofarnesyl diphosphate: an intrinsically fluorescent inhibitor of protein farnesyltransferase” (Bioorg Med Chem Lett, 2004).
One block for each molecule: values may come before it.

Experiments:
Farnesyltransferase = biological target: T1, Farnesyltransferase (Saccharomyces cerevisiae S288c, UniProt P22007+P29703); test: (§1) Dissociation constant against yeast farnesyltransferase; type: protein-complex assay
T1 sequence (P29703 whole entry): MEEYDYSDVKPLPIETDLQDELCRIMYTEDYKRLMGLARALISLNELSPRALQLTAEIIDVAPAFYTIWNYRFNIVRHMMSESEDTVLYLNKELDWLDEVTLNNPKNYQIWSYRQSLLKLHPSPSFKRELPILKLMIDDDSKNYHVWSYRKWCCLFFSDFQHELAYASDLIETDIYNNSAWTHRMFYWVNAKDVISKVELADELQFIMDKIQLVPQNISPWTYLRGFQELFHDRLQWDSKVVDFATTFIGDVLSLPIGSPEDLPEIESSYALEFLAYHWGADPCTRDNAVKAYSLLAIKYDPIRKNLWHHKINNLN
T1 sequence (P22007 whole entry): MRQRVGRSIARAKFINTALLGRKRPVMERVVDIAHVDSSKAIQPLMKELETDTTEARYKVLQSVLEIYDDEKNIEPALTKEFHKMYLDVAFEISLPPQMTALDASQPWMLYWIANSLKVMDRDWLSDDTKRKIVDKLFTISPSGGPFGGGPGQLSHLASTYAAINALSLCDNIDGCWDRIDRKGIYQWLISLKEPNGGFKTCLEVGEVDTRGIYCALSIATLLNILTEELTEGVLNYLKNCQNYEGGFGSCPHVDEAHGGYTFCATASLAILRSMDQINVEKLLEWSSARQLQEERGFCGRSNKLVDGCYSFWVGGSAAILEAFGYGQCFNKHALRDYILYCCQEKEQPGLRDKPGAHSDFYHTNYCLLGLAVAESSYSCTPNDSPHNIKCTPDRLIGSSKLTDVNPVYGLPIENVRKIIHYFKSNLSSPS

[1] = substrate: CC(C)=CCC/C(C)=C/CC/C(C)=C/COP(=O)(O)OP(=O)(O)O; test: as §1; type: protein-complex assay; details: Saccharomyces cerevisiae

- Ki (Farnesyltransferase): 8.8 µM
Molecule: CC(C)=C/C=C/C(C)=C/C=C/C(C)=C/COP(=O)(O)OP(=O)(O)O

B1: Farnesyltransferase (Saccharomyces cerevisiae S288c), P29703+P22007 (protein)
chain 1: T1 sequence (P29703 whole entry)
chain 2: T1 sequence (P22007 whole entry)
- Km [1]: 27 µM
